“Also recorded” adds a separate entry of the source. Read-outs that look alike come from different tables or passages of the source.

One assay has as its system rats. The settings on record: rats trained to discriminate flesinoxan (0.5 mg/kg i.p.) from saline; cited from earlier work.
In a further assay the target is D2 receptors (Homo sapiens, UniProt P14416). The following applies: Koek et al., 1998; cited from earlier work.
For assay [1], the target named is T1, 5-HT1A receptors (Homo sapiens, UniProt P08908).
T1 sequence (P08908 1-422): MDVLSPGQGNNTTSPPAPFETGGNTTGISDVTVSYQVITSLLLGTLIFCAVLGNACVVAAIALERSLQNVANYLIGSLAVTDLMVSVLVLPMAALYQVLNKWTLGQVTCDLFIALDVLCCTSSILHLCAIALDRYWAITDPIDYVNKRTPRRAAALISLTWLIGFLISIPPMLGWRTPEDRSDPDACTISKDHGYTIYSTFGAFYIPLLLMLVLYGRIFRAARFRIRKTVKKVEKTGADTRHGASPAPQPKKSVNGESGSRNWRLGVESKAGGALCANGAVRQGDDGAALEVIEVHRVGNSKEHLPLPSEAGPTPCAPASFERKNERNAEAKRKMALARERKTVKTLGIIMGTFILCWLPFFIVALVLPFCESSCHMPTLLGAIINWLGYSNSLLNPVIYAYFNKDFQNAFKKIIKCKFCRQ
The following applies: Schipper et al., 1991; cited from earlier work.

For assay [2], the target named is T1, 5-HT1A receptors. The experiment in a line: 5-HT1A receptor affinity (Schipper et al., 1991). Format: binding. The settings on record: for ΔpKi for 5-HT1A and D2 receptors: based on Ki values of Schipper et al.
Assay [3] deals with T1, 5-HT1A receptors. The settings on record: proportion of maximal inhibition of forskolin-stimulated cAMP relative to 5-HT; Koek et al., 1998; cited from earlier work.
For another assay, the system named is wild-type mice. The assay can be described thus: Open-field locomotor activity, wild-type mice. Type of assay: in vivo. An excerpt:
(§1) Heterozygote coloboma mice were originally purchased from The Jackson Laboratory (Bar Harbor, Me.) and were bred and maintained in our colony. In the current study, mutant mice and wild-type littermates, all aged 8 to 10 weeks, were used. Animals were divided into 4 groups: mutant/drug-treatment, mutant/vehicle-control, wild-type/drug-treatment, wild-type/vehicle-control (n=4-13 per group). Age and gender were balanced among groups. All animals were housed as littermates (2-4 mice per cage) and were maintained on ad libitum food and water with a 12 hr light/dark cycle.
(§2) The Open-field (OF) test was performed under normal lighting conditions (400 lux). Mice (Cm/+, WT) were brought into the experimental room and allowed at least 1 hr of acclimation. […] Each mouse was then placed into an OF arena (27×27×20 cm) with an infrared beam array system (Med Associates, St. Albans, Vt.) that automatically monitored the animal's activity. Four animals of matching genotype and treatment were tested at one time. The test session lasted 40 min and animals were returned to the home cage at the end of the session. Test measures included locomotion (distance traveled in cm) and number of center entries (zone crossings).

Assay [4] addresses T1, 5-HT1A receptors. The experiment in a line: 5-HT1A receptor affinity (Koek et al., 1998). Type of assay: binding. The settings on record: from pKi values of Koek et al.
Another assay deals with α1 adrenergic receptors. The following applies: Schipper et al., 1991; cited from earlier work.
For the next assay, the system named is mice (C57BL/6J; C3H). The experiment in a line: Peak procedure (peak interval procedure, PIP). Type of assay: in vivo. The following applies: for effect on performance (relative response rate curve) in PIP 30 s task: C57BL/6J mice, vs saline. The method, then: The peak procedure is a behavioral model designed to assess an animal's ability to learn an appropriate time period in which to perform a task and a time period in which the animal will be rewarded if the task is performed. The model provides information concerning excitatory and inhibitory components of behavior, as subjects must respond to perform a task when appropriate and stop responding in an “empty trial” when time for reward has elapsed and the reward has not been delivered. The task is sensitive to conditions where there is a failure in inhibitory mechanisms, such as seems to be the case for ADHD (Pliszka et al., Biol. Psychiatry, 48:238-46, 2000).
In the peak procedure, mice are trained to work for food that is delivered at the same time in each trial, but withdrawn in some unreinforced trials. Typically, the response rate increases up to a maximum around the reinforcement time, and then decreases to a low toward the end of the trial. The shape of the response rate indicates whether the animal is sensitive to the time of reinforcement. To be able to perform well in this model, the animals need to be able to learn several tasks. First, the animal must make an association between a response (lever pressing, nose poking or key pecking) and the delivery of reward. Second, the animal must be able to perceive and remember time. Third, the animal must act on its remembered time by starting and then stopping or inhibiting the response. Fourth, the animal must be able to compare the elapsed time in the trials with its remembered time to reinforcement. In each trial the time clock is reset, and the animal must reset its internal “counter,” i.e., at the beginning of each trial animals should start “timing” the trial time from zero. The ability to perform this task depends on the animal's working memory. Starting the internal clock at the beginning of the trial requires that the animal pays attention to the trial start time, which could be in the form of a visual signal, or as reported herein, the introduction of a lever into the experimental chamber. […] Accuracy is measured by looking at the shape of the response function; therefore, if the response function is sharper and centered on the reinforcement time it supports a conclusion that attentional processes have been heightened.
All mice were food deprived to a target weight of 85-90% of their free-feeding weight before training began. Mice were fed approximately 10% of their body weight until they reached their target weight. On average, 1 week of food deprivation was sufficient to reach the target weight. During this time, all subjects were fed Bioserve 500 mg precision dustless pellets as their daily ration. They were exposed to Carnation™ evaporated milk in the home cage to avoid a possible neophobic reaction to the reinforcement. Subjects were given 1-week “vacations” every 4 to 6 weeks at which time they were allowed free access to food and a new free-feeding body weight baseline was recorded. Water was continuously available in the cage.
Once deprived, animals were trained to lever-press in an operant chamber using ultrasensitive levers. Sixteen mouse operant chambers (Med Associates, Georgia, Vt.) were configured identically with two retractable ultra-sensitive levers, stimulus lights, and a dipper for delivery of condensed milk. A house light was placed on the opposite wall from the levers. Each chamber was placed in isolation cubicle. A fan provided white masking noise and adequate air.
Training and testing consisted of 1-h daily sessions. Subjects started on a concurrent fixed ratio 1-fixed time 1 min (FR 1-FT 1) schedule of reinforcement in which the house light served as the discriminative stimulus. Food was delivered every 1 min but the delivery was immediate if the animal made a response. […] After no more than 1 week on this schedule, mice began training with a fixed-interval (FI) 10 s schedule in which all trials were separated by a 20 s, intertrial interval. […]

The target of assay [5] is T2, dopamine D2 receptors (Homo sapiens, UniProt P14416). The assay can be described thus: Dopamine D2 receptor affinity (Schipper et al., 1991). Type of assay: binding. The following applies: converted from Ki of Schipper et al., read-out: pKi for D2 receptors (converted).
T2 sequence (P14416 whole entry): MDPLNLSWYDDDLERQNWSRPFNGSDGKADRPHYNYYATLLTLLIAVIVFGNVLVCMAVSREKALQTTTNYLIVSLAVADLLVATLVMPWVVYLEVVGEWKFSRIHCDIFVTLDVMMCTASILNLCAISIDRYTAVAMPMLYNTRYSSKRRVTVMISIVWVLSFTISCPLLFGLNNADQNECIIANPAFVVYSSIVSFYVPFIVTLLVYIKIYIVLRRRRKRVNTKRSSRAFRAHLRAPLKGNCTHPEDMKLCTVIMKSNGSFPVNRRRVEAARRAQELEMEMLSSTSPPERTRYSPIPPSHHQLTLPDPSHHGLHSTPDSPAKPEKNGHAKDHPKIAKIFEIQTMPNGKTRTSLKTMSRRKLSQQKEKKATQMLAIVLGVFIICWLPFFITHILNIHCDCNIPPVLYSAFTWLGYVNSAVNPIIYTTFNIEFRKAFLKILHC
The target of assay [6] is T1, 5-HT1A receptors. The settings on record: Koek et al., 1998; cited from earlier work.
In a further assay the target is 5-HT1B receptors. The settings on record: Schipper et al., 1991; Boddeke et al., 1992; cited from earlier work.
For the next assay, the target named is 5-HT1D receptors. The settings on record: Schipper et al., 1991; cited from earlier work.
In assay [7] the target is T2, dopamine D2 receptors. The settings on record: Schipper et al., 1991; cited from earlier work.
The test system of assay [8] is coloboma mutant (Cm) mice. The assay can be described thus: Open-field locomotor activity, coloboma mutant mice. Format: in vivo.
From the text: as §1, §2

In a further assay the target is 5-HT1B/1D receptor. The settings on record: [3H]5-CT […] or 2 nM in cortex; exemplary protocol; read-out: Ki of reference compound, 5-HT1B/1D binding assay; cited from earlier work.
The target of assay [9] is other neurotransmitter receptors. The following applies: Schipper et al., 1991; cited from earlier work.
A further assay relates to Cm mutant mice. The following applies: Cm mutant mice (methylphenidate: both control and Cm mutants); Hess et al., 1996; cited from earlier work.
Assay [10] relates to other 5-HT receptor subtypes or other neurotransmitter receptors. The following applies: reported; cited from earlier work.
The mark [11] stands for this setting: C3H mice, 0.03 mg/kg, vs vehicle.
[12] abbreviates: C3H mice, 0.1 mg/kg, vs vehicle.

Sequence of D2 receptors (P14416 whole entry): as above

Regarding `Cl.O=C(NCCN1CCN(c2cccc3c2OCC(CO)O3)CC1)c1ccc(F)cc1` (single isomer, unassigned; (+)) [flesinoxan, (+)(4-fluoro-N-[2-[4-[2-(hydroxymethyl)-1,4-benzodioxane-5-yl] 1-piperazinyl]ethyl]benzamide) HCl], in the assay with rats, the “generalization to stimuli of α1 adrenoceptor antagonist, α2 adrenoceptor agonist, dopamine receptor agonist or antagonists” value is “did not generalize”. Moreover, the “pKi for D2 receptors” value on D2 receptors is 7.05. In addition, the Ki on 5-HT1A receptors [1] is 0.0017 µM; on 5-HT1A receptors [2] (converted from Ki of Schipper et al.), 0.0017 µM; at α1 adrenergic receptors, 0.38 µM; at dopamine D2 receptors [5], 0.141 µM; on 5-HT1B receptors, 0.81 µM; on 5-HT1D receptors it was 0.16 µM. Besides, on dopamine D2 receptors [7], the Ki is 0.14 µM. Moreover, the figures for the “ΔpKi for 5-HT1A and D2 receptors” value on 5-HT1A receptors [2] and on 5-HT1A receptors [4] were “about 1.92” and 1.86, respectively. The “intrinsic activity at the 5-HT1A receptor” value (from here on “intrinsic activity”) at 5-HT1A receptors [3] is 0.93. The “locomotion (distance traveled or zones crossed)” value in the assay on wild-type mice (0.3 mg/kg i.p.) is “only marginally affected locomotion”. For the same compound, the “effect on response curve in PIP 30 s” value with mice (C57BL/6J; C3H) (setting [11]) was “the peaks of the response curve is higher and the curves are sharper than vehicle”. Moreover, the “effect on response curve in PIP 45 s” value with mice (C57BL/6J; C3H) (setting [11]) is “evident but less robust”. In addition, in the assay with mice (C57BL/6J; C3H) (setting [12]), the “effect on performance curves in PIP 30 s and PIP 45 s” value is given as “more comparable to saline curve”. Moreover, the “pKi for 5-HT1A receptors” value at 5-HT1A receptors [6] is recorded as 8.91. For the same compound, the “reduction in locomotor activity compared to vehicle-treated Cm mutants” value in assay [8] (Cm mutant mice, 0.3 mg/kg i.p.) is reported as “more than 75%”. This compound also showed a total ambulatory distance in assay [8] (Cm mutant mice, 0.3 mg/kg i.p. 30 min before 40 min open-field session, vehicle 6112±1621) of 1462±411 centimeters. Also, the “frequency of zone crossings” value in assay [8] (Cm mutant mice, 0.3 mg/kg i.p., overall effect not statistically significant (p=0.0683)) is on record as “decreased the frequency of zone crossings in Cm mutants to within the range of saline-treated wild-type mice”.

Consider `NCCc1c[nH]c2ccc(C(N)=O)cc12` [5-CT, 5-carboxyamidotryptamine], for which, at 5-HT1B/1D receptor, the Ki is 0.0007 to 0.0011 µM.

Turning to `CCCN(CCC)C1CCc2cccc(O)c2C1` (centres unmarked) [8-OH-DPAT, 8-hydroxy-2(di-n-propylamino)tetralin], the “ΔpKi for 5-HT1A and D2 receptors” value on 5-HT1A receptors [2] turned out to be 2.94. The total ambulatory distance in the assay on wild-type mice (0.1 mg/kg, vehicle 7720±2726, non-significant) is on record as 4517±1599 centimeters; in assay [8] (Cm mice, 0.1 mg/kg, vehicle 14702±2611, not statistically significant), 7813±2606 centimeters. The Ki in [9] is greater than 1 µM; at α1 adrenergic receptors, 0.38 µM; on 5-HT1D receptors, 0.93 µM. In addition, the “effect on performance curves in PIP 30 s and PIP 45 s” value in the assay with mice (C57BL/6J; C3H) (C3H mice, 0.01 mg/kg, vs vehicle, 0.01 mg/kg) is recorded as “not significantly different from the saline curve; also recorded: slightly disruptive”; in the assay with mice (C57BL/6J; C3H) (setting [12]), “not significantly different from the saline curve”. In addition, the “attenuation of total ambulatory distance compared to vehicle” value in [8] (Cm mice, 0.1 mg/kg) is listed as roughly 50%. In addition, the “total frequency of zone crossings” value in assay [8] (Cm mice, 0.1 mg/kg, p=0.030) is recorded as “significantly decreased”. The “attenuation of Cm hyperactivity” value in assay [8] (Cm mice, lower doses 0.001 or 0.01 mg/kg, data not shown) is “no significant attenuation”.

Consider `Cn1c(=O)cnn(CCCCN2CCN(c3ncccn3)CC2)c1=O` [F11440, 4-methyl-2-(4-[4-(pyrimidin-2-yl)-piperazino]-butyl)-2H,4H-1,2,4-triazin-3,5-dione], for which the “pKi for D2 receptors” value at D2 receptors is 5.75. For the same compound, the “intrinsic activity” value on 5-HT1A receptors [3] is recorded as 1.0. Moreover, at 5-HT1A receptors [4], the “ΔpKi for 5-HT1A and D2 receptors” value was determined as 2.58. Also, the “pKi for 5-HT1A receptors” value at 5-HT1A receptors [6] is 8.33.

As to `CC(N)Cc1ccccc1` (centres unmarked) [amphetamine], the “effect on hyperactivity / locomotor activity” value in the assay on Cm mutant mice was “normalizes the hyperactivity”. Moreover, the total distance traveled with wild-type mice (4 mg/kg i.p. 30 min before 40 min open-field session, saline 3116±338) amounted to 11657±2370 centimeters; in assay [8] (Cm mutant mice, 4 mg/kg i.p. 30 min before 40 min open-field session, saline 18386±6387) it was 5966±1938 cm. Besides, the entries for the “effect on performance (relative response rate curve) in PIP 30 s task” value in the assay on mice (C57BL/6J; C3H) (1 mg/kg), in the assay on mice (C57BL/6J; C3H) (2 mg/kg) and with mice (C57BL/6J; C3H) (4 mg/kg) were “positive effects”, “positive effects” and “disrupted performance”, respectively.

On to `Clc1cnn(CCCCN2CCN(c3ncccn3)CC2)c1` [lesopitron, 2-[4-[4-(4-chloro-1H-pyrazol-1-yl)-butyl]-1-piperazinyl]pyrimidine], for which the “intrinsic activity” value on 5-HT1A receptors [3] is 0.70. Further, the “affinity for other 5-HT receptor subtypes or other neurotransmitter receptors” value in [10] was “virtually no affinity”.

Values taken from US20050004105A1, “Treatment for a attention-deficit hyperactivity disorder” (priority 2003, published 2005).
